Results from US9072729B2, “Method for treating fibrosis and cancer with imidazolium and imidazolinium compounds” (Agency for Science, Technology and Research, priority 2008, dated 2015).

Columns and labels:
MDAMB231 = experiment: Growth inhibition assay (MTT), MDAMB231; assay type: cell-based, human; settings: MDAMB231, 72 h
Procedure: (§3) The percentage of growth inhibition was determined by using a MTT assay to measure viable cells. For the MTT assay, 1×10^3 cells per well were cultured in 96-well plates and treated with 0 to 100 μM of various types of IMSs for 72 h. After incubation for specified times at 37° C. in a humidified incubator, culture medium replaced with 10 μL of MTT reagent (5 mg/mL) contains 100 μL medium was added to each well and further incubated for 4 h. The reaction was stopped by adding 100 μL of DMSO. Absorbance was measured at 570 nm on a micro plate reader (SpectroMax 190, Molecular Devices). Data were presented from three separate experiments, and the percentage of IMSs induced cell growth inhibition was determined where DMSO-treated cells (control) were taken as 100%.
(§4) First, the cytotoxic effect of these drugs on these cells was investigated using the MTT assay. Cells were seeded into 96 well plates and treated with increasing concentrations of these synthetic organic molecules for 72 h, and then the cytotoxic effect was measured.

MCF-10A = experiment: Growth inhibition assay (MTT), MCF-10A; settings: 72 h
Procedure: as §3, §4

MKN 28 = experiment: Growth inhibition assay (MTT), MKN 28; assay type: cell-based, human; settings: MKN 28, 72 h
Procedure: as §3, §4

HLE cells [1] = experiment: Cell cycle analysis (PI flow cytometry); assay type: cell-based, human; settings: 72 h; for cells in the S phase: at respective IC-50, control 24%; for cells in the G2/M phase: at respective IC-50, control 30%; for cells in the G1 phase: at respective IC-50, control 50%
Procedure: FIG. 37. IMSs arrest Hepatocarcinoma cells. Cells were treated with vehicle and IBN 15, IBN 19, IBN 24, IBN 25 and IBN 32 for 72 h, and cell cycle distribution was assessed by flow cytometry. A) Example FACS profiles of propidium iodide-stained control cells, and cells treated with IMSs respectively. B) % of cells in cell cycle phase C) % of cells in subG0 population. Each value is the mean±S.D. of three determinations.
To perform cell cycle distribution analysis, 4×10^5 cells were plated in 10 cm dish. The cells (70% confluence) were serum-starved for 24 h to synchronize them in the G0 phase of the cell cycle. After 24 h incubation, the cells were replaced with fresh 10% DMEM medium and then treated 60 μM of IBN-15, 90 μM of IBN-19, 90 μM of IBN-24, 30 μM of […] and 20 μM of IBN-32) and 0.045% DMSO as control for 72 h. The floating and trypsinized adherent cells were collected and washed with PBS. The cell pellets were resuspended in 1 ml of PBS and fixed by the addition of 70% ice-cold ethanol and stored at −20° C. After incubation for 24 hr, the cells were re-pelleted by centrifugation, the cells were washed once with PBS and resuspended in 0.1 mL of PBS containing 100 μg/ml of RNase and then incubated at 37° C. for 15 min. Finally, the cells were stained with 0.5 ml of PI solution (100 μg/mL in PBS) for 30 min. Cell cycle distribution was detected by a BD FACS array flow cytometer (Becton Dickinson). Cells with sub-G0 DNA were classified as apoptotic cells.

HLE cells [2] = experiment: Growth inhibition assay (MTT), HLE; assay type: cell-based, human; settings: Homo sapiens
Procedure: The effect of IMSs (IBN-15, IBN-19, IBN-24, IBN-25 and IBN-32) on the proliferative properties of p53 mutant cell line HLE was examined. The cytotoxicity activity and proliferation inhibition of IMSs in tumor cells were measured by MTT. […] The control experiments with DMSO alone (0.05% v/v) had no effect on cell proliferation. […] (Table 4) Microscopic observation on the cell cultures visually confirmed the inhibition on cell proliferation by IMSs. (FIG. 35)

HLE cells [3] = experiment: Apoptosis assay (Annexin V-FITC/PI flow cytometry); assay type: cell-based, human; settings: 72 h, IBN-15 60 μM, IBN-19 90 μM, IBN-24 90 μM, IBN-25 30 μM, IBN-32 20 μM, DMSO 0.045%
Procedure: FIG. 36. IMSs induce apoptosis in Hepatocarcinoma cells. A) Cells were treated with vehicle and IBN 15, IBN 19, IBM 24, IBN 25 and IBN 32 for 72 h, and apoptosis was quantified using Annexin V-FITC/PI staining followed by flow cytometric analysis. 10,000 cells were detected for every sample. Living cells are in the bottom left quadrants (FITC− and PI−), early apoptotic cells in the bottom right quadrants (FITC+ and PI−), and late apoptotic cells in the upper right quadrants (apoptotic FITC+ and PI+). B) The percentage of apoptotic cells with respect to different IMSs.
To determine apoptosis analysis, 4×10^5 cells were plated in 10 cm dish. […] The floating and trypsinized adherent cells were collected and the apoptosis was quantified using Annexin V-FITC reagent (BD Biosciences Pharmingen) and PI (Invitrogen) following the manufacturer's protocol. Briefly, the cells were washed twice with cold PBS and then resuspend cell in 100 μl of × binding buffer containing a 10 μl of Annexin V-FITC (BD-Pharminagen) and 2 μl of PI from the stock of 100 μg/ml. The cells were gently vortexed and incubated for 15 min at room temperature in the dark. Subsequently 400 μl of 1× binding buffer were added to each tube, and the samples were immediately analyzed by FACScan flow cytometer (Becton Dickinson). The fluorescent signals of the Annexin-V conjugate and PI were detected at channels of fluorescence intensity FL1 and FL2 (BD LSR II with software BD).
Cells undergoing apoptosis would stain positive for Annexin and negative for PI (quadrant 4, Q4). Cells which stained positive for both Annexin V-FITC and PI (Q2) are either at the end stage of apoptosis or undergoing necrosis, and those which stained negative for both Annexin V-FITC and PI (Q3) were alive or undergoing undetectable apoptosis. In contrast, cell debris stained only for PI (Q1).

[4] = test system: p53 signaling pathway-associated gene expression in HLE cells; experiment: Real-time PCR array of p53 signaling pathway-associated genes; assay type: cell-based, human; settings: 48 h
Procedure: FIG. 42. Real-Time PCR array analysis of p53 signaling pathway-associated gene expression. (A) Anti-apoptotic genes. (B) Growth inhibition gene SESN2. (C) Cell cycle check point genes. (D) Cell proliferation genes. (E) DNA repair gene ATM. The relative level of gene expression was normalized with housekeeping gene GAPDH. Values are expressed as mean±standard deviation.
Cells were seeded at a density of 4×10^5 cells per dish in 10 cm dishes. Next day, the cells were exposed to 90 uM of IBN-19, 90 uM of IBN-24, 40 uM of IBN-25 and 0.045% of DMSO (Dimethyl Sulphoxide) as the control. After 48 hrs, total RNAs were extracted from the cells using Nucleospin RNA II kit as per the manufacturer's istructions. RNA quality and yield were evaluated after spectrophotometer measurements.
The human apoptosis PCR array (RT^2 Profiler) was used to analyze mRNA levels of 84 key genes involved in apoptosis, in a 96-well format, according to the manufacturer's instructions (Super Array Bioscience). First-strand cDNA was synthesized with 1 μg of RNA by using a PCR array first strand-synthesis kit (C-03; Super array Bioscience). This kit uses reverse transcriptase (Power Script; Super array Bioscience) and a combination of random primers and oligo dT primers. The total volume of the reaction was 20 μL diluted to 100 μL. PCR reactions were performed using real-time PCR (79s00HT 96-well block with RT^2 Real-Time SYBR Green PCR master mix PA-012; Applied Biosystems Instruments 7500). The total volume of the PCR reaction was 25 μl. An equivalent of […] of RNA was applied to the PCR reaction. The thermocycler parameters were 95° C. for 10 minutes, followed by 40 cycles of 95° C. for 15 seconds and 60° C. for 1 minute. Relative changes in gene expression were calculated using the ΔΔCt (cycle threshold) method. An average of the number of cycles of the five housekeeping genes, GAPDH, Actin-β, β2m, Hprt1, and Rpl13d, was used to normalize the expression between samples. The expression data are presented as fold regulation. GAPDH gene expression levels were utilized as an internal control to normalize the data. Reported fold changes in expression are the ratios of treatment over control values.
To obtain more information on how the IMSs influence other gene expression in the HLE cells, 84 genes related to p53 signal transduction were profiled by using the RT^2 Profiler array (Super Array Bioscience) (FIG. 42A, B, C, D, E). The array includes keys genes relevant to p53, apoptosis, cell cycle, cell growth, proliferation, differentiation, and DNA repair.

[5] = test system: caspase 3, caspase 9 and PARP; experiment: Western blot of caspase-3, caspase-9 and PARP cleavage in HLE; assay type: cell-based, human; settings: 72 h
Procedure: FIG. 38. IMSs, induce cleavage of caspase-3, caspase-9 and PARP. Western blot analysis for the effect of IBN 15, IBM 19, IBN 24, IBM 25, IBN 32 on the cleavage of caspase-3, Caspase-9 and PARP in HLE cells after 72 h exposure to indicated doses of IMSs.
The HLE cells were seeded at a density of 4×10^5 in 10 cm dish. After 24 h incubation, the cells were replaced with fresh 10% DMEM medium and then treated with 60 μM of IBN-15, 90 μM of IBN-19, 90 μM of IBN-24, 30 μM of IBN-25 and 20 μM of IBN 32 and 0.045% DMSO as control for 72 h. Whole cell lysates were prepared on day 3 with lysis buffer [125 mM Tris (pH 7.4), 2% Sodium dodecyl sulfate, 10% glycerol, 6M urea and a protease inhibitor cocktail (Sigma) and 0.02% Bromophenol blue]. The lysates were sonicated for 30 seconds and then heated for 5 mins at boiling temperature. The lysates were centrifuged at 13000 rpm for 10 mins and the protein concentration of each sample was estimated using the BCA protein assay. The lysates was then mixed with 5% 2-mercaptoethanol and stored at −80 C. For Western blotting, samples containing 50 μg of total cell lysate were loaded onto a SDS-PAGE and subjected to electrophoresis. Proteins were transferred to a nitrocellulose membrane and then blocked with 5% non-fat dry milk in Tris buffer saline containing 0.1% Tween 20 for 60 min at 37 C. The membranes were probed with a primary antibody overnight at 4 C in TEST containing 5% Bovine serum albumin. Then the membrane was incubated with horseradish peroxidase (HRP)-conjugated anti-rabbit or anti-mouse secondary antibodies (GE Health care, Chalfont St Giles, UK). Detection was performed with enhanced chemiluminescence (ECL) reagent (Amersham Arlington Heights, Ill.) according to the manufacturer's protocol. Rabbit polyclonal Phospho-p53 (Ser15, 20, 46, 392), anti-caspase-9, anti-caspase-3, anti-PARP antibodies were purchased from Cell Signaling Technology, Inc. (Beverly, Mass., USA). Antibodies against p53 and p21 were purchased from Santa Cruz Biotechnology (Santa Cruz, Calif., USA).

HLE cells [6] = experiment: Annexin V staining and flow cytometry, HLE; assay type: cell-based, human; settings: 24 hr, TRAIL 100 ng/ml
Procedure: (§1) FIG. 22. […] HLE or HepG2 cells were incubated with DBZIM of various concentrations for 6 hr, and assayed for caspase 3/7 activity and LDH releasing (expressed as % toxicity). DBZIM induced apoptosis as characterized by annexin V staining using flow cytometer in HLE (E) and HepG2 (F). Scatter plot and histogram gave the representative information on the cell population distribution while bar graphs quantified the percentage of apoptotic cells from the histogram. HLE and HepG2 cells were treated by DBZIM of various concentrations for 24 hr before harvesting for annexin V staining and flow cytometric analysis.
(§2) HLE and HepG2 cells were treated with various concentrations of DBZIM or TRAIL (100 ng/ml) for 24 hr, harvested and labeled with Annexin V-FITC (BioVision, CA, USA). The labeled cells were analysed by flow cytometry FACSCalibur ([…], NJ, USA) and CellQuest software. Cells showing green staining in the plasma membrane were considered as apoptotic cells.

HepG2 cells = experiment: Annexin V staining and flow cytometry, HepG2; assay type: cell-based, human; settings: HepG2, 24 hr; TRAIL 100 ng/ml
Procedure: as §1, §2

Cc1n(Cc2ccccc2)cc[n+]1Cc1ccccc1.[Br-] [compound C, 1,3,-Dibenzyl-2-methylimidazolium bromide]
IC50 (MDAMB231): 35 µM
IC50 in normal breast epithelial cells (MCF-10A): no IC50
IC50 (MKN 28): 35 µM

[Br-].c1ccc(Cn2c[n+](Cc3ccccc3)cc2-c2ccccc2)cc1 [IBN-15, 1,3-Dibenzyl-5-phenylimidazolium bromide]
cells in the S phase (HLE cells [1]): 19.7%
cells in the G2/M phase (HLE cells [1]): 21%
cells in the G1 phase (HLE cells [1]): 42%
IC50 (HLE cells [2]; 72 h): 60 µM
IC50 (HLE cells [2]; 120 h): 20 µM
cell apoptosis (Q2) (HLE cells [3]): 33%

Cc1n(Cc2ccccc2)cc[n+]1Cc1ccccc1C(F)(F)F.[Cl-] [IBN-25, 1-benzyl-3-(2-trifluoromethylbenzyl)-2-methylimidazolium chloride]
cells in the S phase (HLE cells [1]): 14.3%
cells in the G2/M phase (HLE cells [1]): 19.4%
cells in the G1 phase (HLE cells [1]): 34.5%
anti-apoptotic gene BCl-2 expression [4]: significantly down regulated
cell proliferation genes (Mcl1, Egr1, Foxo3, Jun, Mdm4, Nf1, Prm1D, Sesn1, E2f11, Prkca, Brca1) [4]: significantly down regulated
increase of ATM gene expression vs control ([4]; IBN-19 90 uM, IBN-24 90 uM, IBN-25 40 uM): 9 folds
IC50 (HLE cells [2]; 72 h): 30 µM
IC50 (HLE cells [2]; 120 h): 35 µM
activation and cleavage of caspase 3, caspase 9 and PARP [5]: induced significant activation and cleavage

[Br-].c1ccc(CCn2cc[n+](CCc3ccccc3)c2)cc1 [IBN-32, 1,3-di(2-phenylethyl)-imidazolium bromide]
cells in the S phase (HLE cells [1]): 14.6%
cells in the G2/M phase (HLE cells [1]): 18.9%
cells in the G1 phase (HLE cells [1]): 32.3%
IC50 (HLE cells [2]; 72 h): 20 µM
IC50 (HLE cells [2]; 120 h): 20 µM
cell apoptosis (Q2) (HLE cells [3]): 18%

B1: TRAIL: TNF-Related Apoptosis Inducing Ligand, used as a positive control for apoptosis (protein, UniProt P50591 1-281, looked up)
Tumor necrosis factor ligand …: MAMMEVQGGPSLGQTCVLIVIFTVLLQSLCVAVTYVYFTNELKQMQDKYSKSGIACFLKEDDSYWDPNDEESMNSPCWQVKWQLRQLVRKMILRTSEETISTVQEKQQNISPLVRERGPQRVAAHITGTRGRSNTLSSPNSKNEKALGRKINSWESSRSGHSFLSNLHLRNGELVIHEKGFYYIYSQTYFRFQEEIKENTKNDKQMVQYIYKYTSYPDPILLMKSARNSCWSKDAEYGLYSIYQGGIFELKENDRIFVSVTNEHLIDMDHEASFFGAFLVG
apoptosis (annexin V staining) (HLE cells [6]): not in HLE cells
apoptosis (annexin V staining) (HepG2 cells): only induced apoptosis in HepG2
